We go through 1 molecule from patent US8697385B1, “Protein controlling synthesis of collagen and associated methods” (Florida State University Research Foundation, Inc., priority 2009, dated 2014).

Assay [1] deals with nonmuscle myosin filaments. The experiment in a line: Immunostaining of nonmuscle myosin IIB filaments in lung fibroblasts. The format is cell-based. The conditions noted are these: human lung fibroblasts; ML-7 40 μM 16 h; untreated cells show prominent filaments. Here is the method: ML-7, blebbistatin, cytochalasin B, puromycin, and cycloheximide were purchased from Sigma. ML-7 was used at 40 μM, blebbistatin was used at 100 μM, and cytochalasin B was used at 20 μM. Cells were incubated with the drugs for 16 h before analysis. Puromycin (200 μg/ml) and cycloheximide (100 μg/ml) were added to the cells for 2 h. Human lung fibroblasts have been described previously.16 Scleroderma fibroblasts were purchased from the European Collection of Cell Cultures (cell line BM0070) and derived from the skin of a scleroderma patient. MEFs were derived from knock-in mice in which the 5′SL of the collagen α1(I) gene has been mutated (Parsons et al., submitted). Several independent cell isolates were used throughout the study. All cells were cultured in Dulbecco's modified Eagle's medium supplemented with 10% fetal bovine serum for up to 10 passages. […] [^32P]dCTP was included in the PCR step to label the products, which were resolved on sequencing gels, as described previously.^8,31,49,50 When RNA from polysomal fractions was analyzed, an equal aliquot of each fraction was used. […]
Protein concentration was estimated by the Bradford assay, with bovine serum albumin as standard.^51 Western blot analyses of cellular proteins were performed using 50 μg of protein. […] The medium was collected, and an aliquot was analyzed directly by Western blot analysis. […]

For another assay, the system named is calnexin. The experiment in a line: Immunostaining for the ER marker protein calnexin. Format: cell-based. The settings on record: ML-7-treated cells vs control cells. Here is the method: Protein concentration was estimated by the Bradford assay, with bovine serum albumin as standard.^51 Western blot analyses of cellular proteins were performed using 50 μg of protein. For Western blot analysis of secreted proteins, equal numbers of cells were seeded, serum-free medium was added to the cells, and incubation continued for 3 h. The medium was collected, and an aliquot was analyzed directly by Western blot analysis. Use of serum free medium in collecting secreted proteins is essential because fetal calf serum contains substantial amounts of collagen and fibronectin.^15,31 For immunostaining, cells were seeded onto glass coverslips. […]
To assess the role of nonmuscle myosin in collagen synthesis, we disrupted nonmuscle myosin filaments in two different cell types: primary human lung fibroblasts and primary scleroderma skin fibroblasts. […] To assess the effect of ML-7 on collagen protein synthesis and secretion, we analyzed the levels of collagen α1(I) and α2(I) polypeptides in the intracellularly space and in the medium using Western blot analysis and chain-specific antibodies.^12,15,31-33 ML-7 treatment profoundly affected the secretion of type I collagen, but the effect differed in the two types of primary fibroblasts. […]

As for `O=S(=O)(c1cccc2c(I)cccc12)N1CCCNCC1` [ML-7], the “myosin IIB immunostaining (filaments)” value in assay [1] is “myosin staining is confined around the nucleus”. Moreover, the “calnexin immunostaining (organization of the ER)” value in the assay on calnexin is listed as “did not show a difference”.
